Measured values: patent publication US6866872B1, “Withania somnifera Dunal extracts for increasing male sperm count” (Nippon Shinyaku Co., Ltd., priority 1999, dated 2005)

Legend:
[1] = system: Slc:SD rats; assay: Test Example 2: genital organ weights 1 week after ethynylestradiol dosing for 10 days; assay type: in vivo, rat; details: ethynylestradiol 3 mg/kg orally once daily for 10 days, weighed 1 week after the course, n = 10
Method: Slc:SD rats aged 10 weeks (in groups of 10) were orally dosed with 3 mg/kg of the endocrine disturbing chemical ethynylestradiol suspended in 0.5% sodium carboxymethylcellulose (CMC) solution (ethynylestradiol 0.3 mg/mL) or, as control, 10 mL/kg of 0.5% CMC solution once daily in the morning for 10 days, and at 1 week after the administration course, the testis, epididymis, prostate and seminal vesicle were respectively weighed.
Rat husbandry conditions: room temperature 21˜25° C., humidity 45˜60%, artificial lighting 12 hrs (7:00 a.m.˜7:00 p.m.), ventilation frequency 15/hr, solid food (CE-2, CLEA Japan Inc.) and drinking water ad libitum.

[2] = system: rats with the genital organs impaired by ethynylestradiol; details: rat, in vivo
Method: Using rats with the genital organs impaired by ethynylestradiol as in Test Example 2, the sperm count and motile sperm rate were investigated.
From the right epididymis, the caudal epididymis was excised and weighed with Sartorius electronic balance LC620-S. The caudal epididymis was placed in a sperm collection vial containing 5 mL of BSA-Hanks solution and cut 3 times to cause the sperm to swim out. A 0.05 mL portion of the sperm fluid was sampled and diluted with 0.95 mL of BSA-Hanks solution for use as a diluted sperm fluid. The number of non-motile sperms in the diluted sperm fluid was determined with Thoma's hemocytometer. After this counting of non-motile sperms, the vessel containing the diluted sperm fluid was immersed in hot water and, after return to room temperature, the sperms were counted with the hemocytometer. […] Using the measured values, the motile sperm rate was calculated by means of the following equation [1]. Motile sperm rate (%)=(number of sperms−number of non-motile sperms)/number of sperms×100 [1] (2) Method for Determination of Sperm Count
The caudal epididymis in the sperm collection vial used in the above procedure (1) was further cut to release sperms and the fluid in the vial was filtered through a nylon-mesh sieve. The stock filtrate, 0.1 mL, was diluted with 1.9 mL of formalinized saline and the number of sperms was determined with Thoma's hemocytometer. When the sperm population in the sperm sample was considered to be too small (low turbidity), the stock sperm fluid was not diluted but the vessel was directly immersed in hot water and, after reutrn to room temperature, the number of sperms was determined. Moreover, the number of sperms (sperm count) per caudal epididymis was calculated using the number of sperms determined and the dilution factor by means of the equation given below, with the value per caudal epididymis unit weight (g) being taken as the sperm count/caudal epididymis and the value per epididymis as the sperm count/epididymis.
Sperm count=measured number of sperms×dilution factor Number of sperms/caudal epididymis=number of sperms determined×dilution factor/weight of the caudal epididymis epididymis (g) Number of sperms/epididymis=(number of sperms/caudal epididymis)×weight of epididymis (g)

[3] = system: SD rats; assay: Test Example 1: genital organ weights after ethynylestradiol dosing for 2 weeks; assay type: in vivo, rat; details: ethynylestradiol 3 mg/kg orally once daily for 2 weeks, n = 8
Method: SD rats aged 11 weeks (in groups of 8) were orally dosed with 3 mg/kg of the endocrine disturbing chemical ethynylestradiol suspended in 0.5% sodium carboxymethylcellulose (CMC) solution (ethynylestradiol 0.6 mg/mL) or, as control, 5 mL/kg of 0.5% CMC solution once daily in the morning for 2 weeks, and after the administration course, the testis, epididymis, prostate and seminal vesicle were respectively weighed.
Rat husbandry conditions: room temperature 21˜25° C., humidity 45˜60%, artificial lighting 12 hrs (7:00 a.m.˜7:00 p.m.), ventillation frequency 15/hr, solid food (CE-2, CLEA Japan Inc.) and drinking water ad libitum.

Question: How did the Epididymis weight [1] turn out when `C#C[C@]1(O)CC[C@H]2[C@@H]3CCc4cc(O)ccc4[C@H]3CC[C@@]21C` [Ethynylestradiol, ethynylestradiol] was run?
Answer: The Epididymis weight was 154.5 ± mg/100 gBW.

Question: What about the Prostate weight [1] of the same compound?
Answer: The Prostate weight was 102.3 ± mg/100 gBW.

Question: What about the Seminal vesicle weight [1] of the same compound?
Answer: The Seminal vesicle weight was 170.0 ± mg/100 gBW.

Question: And the Testis weight [1]?
Answer: Its Testis weight is 731.3 ± mg/100 gBW.

Question: What about the “Caudal epididymis (weight, g)” value [2] of the same compound?
Answer: Its value is 0.076 g.

Question: What about the Motile sperm rate [2] of the same compound?
Answer: The Motile sperm rate was 40.6 ± %.

Question: And the Sperm count [2]?
Answer: The Sperm count was 13.0 ± x10^6.

Question: And the Sperm count/caudal epididymis [2]?
Answer: The Sperm count/caudal epididymis was 160.2 ± x10^6.

Question: And the Sperm count/epididymis [2]?
Answer: Its Sperm count/epididymis is 88.8 ± x10^6.

Question: And the Epididymis weight [3]?
Answer: The Epididymis weight was 118 mg/100 g body weight.

Question: What about the Prostate weight [3] of the same compound?
Answer: Its Prostate weight is 77.4 mg/100 g body weight.

Question: And the Seminal vesicle weight [3]?
Answer: Its Seminal vesicle weight is 88.1 mg/100 g body weight.

Question: And the Testis weight [3]?
Answer: Its Testis weight is 705 mg/100 g body weight.
